“Also recorded” adds a separate entry of the source. Like-named read-outs stand apart in the source and are kept apart here.

These results are taken from patent US11191743B2, “Modulators of zinc activated cation channel” (Dignity Health, priority 2016, dated 2021).

Experiment [1] addresses T1, ZACN (Homo sapiens, UniProt Q401N2).
T1 sequence (Q401N2 26-412): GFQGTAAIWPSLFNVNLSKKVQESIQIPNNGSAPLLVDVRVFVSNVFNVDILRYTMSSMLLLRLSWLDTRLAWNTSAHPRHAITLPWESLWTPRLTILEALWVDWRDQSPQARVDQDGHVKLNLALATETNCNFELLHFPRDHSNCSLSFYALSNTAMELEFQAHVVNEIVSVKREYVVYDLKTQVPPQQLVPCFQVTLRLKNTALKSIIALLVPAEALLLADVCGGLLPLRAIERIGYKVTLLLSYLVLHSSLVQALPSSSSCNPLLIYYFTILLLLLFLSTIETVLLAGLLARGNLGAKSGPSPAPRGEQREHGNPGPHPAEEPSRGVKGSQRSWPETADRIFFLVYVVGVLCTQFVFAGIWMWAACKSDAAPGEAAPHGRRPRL
Kind of experiment: Two-electrode voltage-clamp, ZACN expressed in Xenopus laevis oocytes: agonist-induced current. The format is cell-based. More on the design: host or cells: Xenopus laevis oocytes injected with cRNA (pGEMHE vector, T7 transcript). The text has this: (§1) The cDNA encoding wild type, human ZACN was purchased from OpenBiosystems, and cloned into the pGEMHE vector in the T7 orientation. For cRNA synthesis, cDNA templates were PCR amplified using primers that cover the M13 forward and reverse regions and high fidelity Phusion DNA polymerase (New England Biolab, Ipswich, Mass., USA). PCR products were then purified and served as templates for cRNA synthesis. cRNAs were transcribed by T7 RNA polymerase (Promega, Madison, Wis., USA) using standard in vitro transcription protocols. After digestion of the DNA template by RNase-free DNase I, cRNAs were purified and resuspended in diethyl pyrocarbonate (DEPC)-treated water. cRNA integrity was examined on a 1% agarose gel, and cRNA concentration was determined by optical density measurements at 260 nm using an Eppendorf Biophotometer.
(§2) Oocytes were harvested from female Xenopus laevis (Xenopus I, Ann Arbor, Mich., USA), using the protocol “Xenopus Care and Use” approved by the Institutional Animal Care and Use Committee of the St. Joseph's Hospital and Medical Center. Stage VI oocytes were selected and incubated at 16° C. before injection. Micropipettes for injection were pulled from borosilicate glass (Drummond Scientific, Broomall, Pa., USA) on a Sutter P87 horizontal puller, and the tips were cut with forceps to ≈40 μm in diameter. cRNAs encoding ZACN was drawn up into the micropipette and injected into oocytes with a Nanoject micro-injection system (Drummond Scientific) in a total volume of ˜60 nl and total cRNA of ˜20 ng for each oocyte.
(§3) Two to 5 days after injection, oocytes expressing ZACN were placed in a home-made, small volume chamber and a 16-channel manifold, continuously perfused with oocyte Ringer's solution (OR2), which consisted of (in mM) 92.5 NaCl, 2.5 KCl, 1 CaCl2, 1 MgCl2 and 5 HEPES, pH 7.5. ValveLink 16 computer-controlled perfusion system was used to switch solutions between the OR2 and a test solution. The perfusion chamber was grounded through an agar salt bridge to avoid alterations in junction potential between the Ag/AgCl grounding electrode and solution when solution/drug changes occurred. Oocytes were voltage-clamped at −70 mV to measure agonist-induced currents using an AxoClamp 900A amplifier (Axon Instruments, Foster City, Calif., USA). The current signal was low-pass filtered at 20 Hz with the built-in 4-pole low-pass Bessel filter and digitized at 100 Hz with a Digidata1440a and pClamp 10 software (Molecular Devices).
(§4) For each oocyte, concentration-inhibition curves for drug-induced inhibition of zinc-activated current responses or concentration response curves for agonist-induced current of the ZACN were fit to the Hill equation using least squares methods (Prism 6.0, GraphPad Software, Inc., San Diego, Calif., USA) to derive IC50 or EC50 values (the concentration required for inducing a half maximal current), Hill coefficients (the slope factor), and maximum current levels in absolute terms. Current levels in each oocyte were normalized to the maximum current in the absence of the inhibitor, allowing normalized data to be averaged across multiple oocytes and to be fit again to the Hill equation. All data are presented as mean±SEM (standard error).

Experiment [2] deals with T1, ZACN. The experiment can be described thus: Two-electrode voltage-clamp, ZACN expressed in Xenopus laevis oocytes: inhibition or modulation of spontaneous, zinc-activated and suramin-activated current. The format is cell-based. On the set-up: host or cells: Xenopus laevis oocytes injected with cRNA (pGEMHE vector, T7 transcript). The note with it: for mode of antagonism: IC50 at 500 μM vs 2 mM Zn2+. Here is the method:
Stage IV oocytes from Xenopus laevis were injected with Ing of ZACN human mRNA. Prior to recording, oocytes were incubated in the oocyte Ringer's Solution (OR2) with 10 μM D-tubocurarine to inhibit spontaneous channel opening. The oocytes were incubated at 14° C. for three to five days following mRNA injection before recording with two-electrode voltage-clamp. […] Current levels in response to drug applications were normalized to the response to the same concentration of zinc in the absence of the drug. Peak current inhibitions were fitted to the Hill equation to derive IC50 values.
as §1, §2
as §3, with “ValveLink” for “Two to 5 days after injection, oocytes expressing ZACN were placed in a home-made, small volume chamber and a 16-channel manifold, continuously perfused with oocyte Ringer's solution (OR2), which consisted of (in mM) 92.5 NaCl, 2.5 KCl, 1 CaCl2, 1 MgCl2 and 5 HEPES, pH 7.5. ValveLink”
as §4
Background: In two-electrode clamp one electrode senses voltage and the other passes current.

In the case of `O=S1(=O)OC(c2cc(Br)c(O)c(Br)c2)(c2cc(Br)c(O)c(Br)c2)c2ccccc21` [bromophenol blue], the “agonist activity on human ZACN (words)” value on ZACN [1] is recorded as “activate the human ZACN”.

In the case of brilliant blue, the “agonist activity on human ZACN (words)” value at ZACN [1] is “activate the human ZACN”.

As for `CN(C)CCC=C1c2ccccc2COc2ccccc21` [doxepin], on ZACN [2], the “antagonist activity on human ZACN” value is recorded as “acted as antagonists” and the mode of antagonism entry is “non-competitive”.

For `O=C(Nc1cccc(C(=O)Nc2ccc(S(=O)(=O)O)c3cc(S(=O)(=O)O)cc(S(=O)(=O)O)c23)c1)Nc1cccc(C(=O)Nc2ccc(S(=O)(=O)O)c3cc(S(=O)(=O)O)cc(S(=O)(=O)O)c23)c1` [NF-023], at ZACN [1], the “agonist activity on human ZACN (words)” value is listed as “agonist”.

Consider `CCOc1ccccc1OC(c1ccccc1)C1CNCCO1` (stereo not shown) [reboxetine], for which, on ZACN [2], the “antagonist activity on human ZACN” value is given as “acted as antagonists” and the mode of antagonism entry is given as “non-competitive”.

For the compound `CNCCC(Oc1ccc(C(F)(F)F)cc1)c1ccccc1` (stereo not shown) [fluoxetine], on ZACN [2], the “antagonist activity on human ZACN” value is on record as “acted as antagonists” and the mode of antagonism result is “non-competitive”.

As for `Cc1cc2nc3ccc(N(C)C)cc3[s+]c2cc1N.[Cl-]` [toluidine blue], on ZACN [2], the “antagonist activity on human ZACN” value was “antagonists”; the “high sensitivity component of antagonism, concentration range” value (from here on “high sensitivity component of antagonism”) was “nano-molar range”; the “low sensitivity form of antagonism, concentration range” value (shortened to “low sensitivity form of antagonism”) is “micromolar range”.

Consider `Nc1ncnc2c1ncn2[C@@H]1O[C@H](COP(=O)(O)OP(=O)(O)OP(=O)(O)O)[C@@H](O)[C@H]1O` [ATP], for which, at ZACN [2], the “antagonist activity on human ZACN” value is “inhibitor”, the “effect on spontaneous current / spontaneous opening” value was “inhibits”, the “effect on suramin-activated current” value is given as “positive allosteric modulator; also recorded: potentiates” and the “effect on zinc-activated current” value is given as “antagonist; also recorded: inhibits”.

`Cc1c(C2(c3cc(C(C)C)c(O)c(Br)c3C)OS(=O)(=O)c3ccccc32)cc(C(C)C)c(O)c1Br` [bromothymol blue]: the “agonist activity on human ZACN (words)” value at ZACN [1] is “activate the human ZACN”.

`COc1cc(-c2ccc(/N=N/c3ccc4c(S(=O)(=O)O)cc(S(=O)(=O)O)c(N)c4c3O)c(OC)c2)ccc1/N=N/c1ccc2c(S(=O)(=O)O)cc(S(=O)(=O)O)c(N)c2c1O` [Chicago sky blue]: the “agonist activity on human ZACN (words)” value on ZACN [1] is on record as “activate the human ZACN”.

Regarding `Cc1cc(-c2ccc(/N=N/c3c(S(=O)(=O)O)cc4cc(S(=O)(=O)O)cc(N)c4c3O)c(C)c2)ccc1/N=N/c1c(S(=O)(=O)O)cc2cc(S(=O)(=O)O)cc(N)c2c1O` [Trypan blue], the “agonist activity on human ZACN (words)” value on ZACN [1] is recorded as “agonists; also recorded: efficacious agonist”.

Take `Cc1ccc(C(=O)Nc2ccc(S(=O)(=O)O)c3cc(S(=O)(=O)O)cc(S(=O)(=O)O)c23)cc1NC(=O)c1cccc(NC(=O)Nc2cccc(C(=O)Nc3cc(C(=O)Nc4ccc(S(=O)(=O)O)c5cc(S(=O)(=O)O)cc(S(=O)(=O)O)c45)ccc3C)c2)c1` [suramin]: the “agonist activity on human ZACN (words)” value at ZACN [1] is listed as “agonists; also recorded: efficacious agonist”.

`Cc1cc2nc3ccc(N(C)C)cc3nc2cc1N.Cl` [neutral red]: at ZACN [2], the “antagonist activity on human ZACN” value is reported as “antagonists”; the “high sensitivity component of antagonism” value is “nano-molar range”; the “low sensitivity form of antagonism” value is given as “micromolar range”.

On to heparin, for which, at ZACN [1], the “agonist activity on human ZACN (words)” value is reported as “agonist”.

Turning to `CNCC[C@@H](Oc1ccccc1C)c1ccccc1` [tomoxetine], on ZACN [2], the “IC50s relative to clinical concentrations” value is given as “clinically relevant concentrations”, the “antagonist activity on human ZACN” value is “acted as antagonists”, the “relative potency / IC50 for the Zn2+-induced current among seven tested antidepressants” value (from here on “relative potency / IC50”) is “lower IC50 values” and the mode of antagonism entry is “non-competitive”. Further, the “relative potency / IC50” value at ZACN [2] (listed as tomoxentine) is “most potent antagonists”.

For `CN(C)c1ccc2nc3ccc(=[N+](C)C)cc-3sc2c1` [methylene blue], on ZACN [2], the “antagonist activity on human ZACN” value is listed as “antagonists”; the “high sensitivity component of antagonism” value is “nano-molar range”; the “low sensitivity form of antagonism” value was “micromolar range”.

As for `COc1ccc(C(CN(C)C)C2(O)CCCCC2)cc1` (stereo not shown) [venlafaxine], on ZACN [2], the “antagonist activity on human ZACN” value was “acted as antagonists” and the mode of antagonism entry is “non-competitive”.

Take pentosan polysulfate: the entries for the “agonist activity on human ZACN (words)” value at ZACN [1] and at ZACN [1] (listed as pentosane polysulfate) were “agonist of the human ZACN with high efficacy” and “agonist”, respectively.

Take `CN1CCN2c3ccccc3Cc3ccccc3C2C1` (stereo not shown) [mianserin]: at ZACN [2], the “antagonist activity on human ZACN” value was “acted as antagonists” and the mode of antagonism result is recorded as “non-competitive”.

Consider `CNCCCN1c2ccccc2CCc2ccccc21` [desipramine], for which, on ZACN [2], the “IC50s relative to clinical concentrations” value is listed as “clinically relevant concentrations”, the “antagonist activity on human ZACN” value is recorded as “acted as antagonists”, the “relative potency / IC50” value is given as “lower IC50 values” and the mode of antagonism result is recorded as “non-competitive”. For the same compound, the “relative potency / IC50” value on ZACN [2] (listed as desipranine) is on record as “most potent antagonists”.

For `O=C(Nc1cc(C(=O)Nc2ccc(S(=O)(=O)O)cc2S(=O)(=O)O)cc(C(=O)Nc2ccc(S(=O)(=O)O)cc2S(=O)(=O)O)c1)Nc1cc(C(=O)Nc2ccc(S(=O)(=O)O)cc2S(=O)(=O)O)cc(C(=O)Nc2ccc(S(=O)(=O)O)cc2S(=O)(=O)O)c1` [NF-449], on ZACN [1], the “agonist activity on human ZACN (words)” value is given as “agonist” and the “concentration at which the small high sensitivity component is saturated” value was found to be 1 µM.

Turning to `O=C(Nc1cccc(C(=O)Nc2cc(C(=O)Nc3ccc(S(=O)(=O)O)c4cc(S(=O)(=O)O)cc(S(=O)(=O)O)c34)ccc2F)c1)Nc1cccc(C(=O)Nc2cc(C(=O)Nc3ccc(S(=O)(=O)O)c4cc(S(=O)(=O)O)cc(S(=O)(=O)O)c34)ccc2F)c1` [NF-157], the entries for the “agonist activity on human ZACN (words)” value at ZACN [1] and at ZACN [1] (listed as NF157) were “efficacious agonist” and “agonists”, respectively.

For the compound `Cc1cc(-c2ccc(/N=N/c3ccc4c(S(=O)(=O)O)cc(S(=O)(=O)O)c(N)c4c3O)c(C)c2)ccc1/N=N/c1ccc2c(S(=O)(=O)O)cc(S(=O)(=O)O)c(N)c2c1O` [Evans blue], the “agonist activity on human ZACN (words)” value at ZACN [1] was “agonists; also recorded: efficacious agonist”.

For `O=C(Nc1ccc(C(=O)Nc2ccc(C(=O)Nc3ccc(S(=O)(=O)O)c4cc(S(=O)(=O)O)cc(S(=O)(=O)O)c34)cc2)cc1)Nc1ccc(C(=O)Nc2ccc(C(=O)Nc3ccc(S(=O)(=O)O)c4cc(S(=O)(=O)O)cc(S(=O)(=O)O)c34)cc2)cc1` [NF-279], the “agonist activity on human ZACN (words)” value on ZACN [1] is “agonists; also recorded: efficacious agonist”.
